Reference: PMC5915149, “The role of oxidative stress in activity of anticancer thiosemicarbazones” (Oncotarget, 2018)
“Also recorded” adds a separate entry of the source. Read-outs that look alike come from different tables or passages of the source.

Tests used:
HCT116 [1] = test: MTS antiproliferative assay, HCT116 (with or without added metal ions); type: cell-based, human; details: for Selectivity index, calculated for HCT116: versus NHDF
Procedure: (§1) The cells were seeded in 96-well plates (Nunc) at a density of 3,500 cells/well (HCT116 and MCF-7) and 3,000 cells/well (NHDF) and incubated at 37° C for 24 h. The assay was performed following a 96 h incubation with varying concentrations of the compounds that were being tested. Then, 20 µL of CellTiter 96® AQueous One Solution-MTS (Promega) was added to each well (with 100 µL DMEM without phenol red) and incubated for 1 h at 37° C. The optical densities of the samples were analyzed at 490 nm using a multi-plate reader (Synergy 4, Bio Tek). Results were expressed as a percentage of the control and calculated as the inhibitory concentration (IC50) values (using GraphPad Prism 5). The IC50 parameter was defined as the compound concentration that was necessary to reduce the proliferation of cells to 50% of the untreated control. Each individual compound was tested in triplicate in a single experiment with each experiment being repeated three or four times.
(§2) The HCT116 and MCF-7 cells were seeded in 96-well plates (Nunc) at a density of 3,500 cells/well and incubated at 37° C for 24 h. The MTS assay was performed following a 96 h incubation with varying concentrations of the tested compounds. Additionally, a 20 µM solution of CuSO4, FeSO4 or FeCl3 was added into wells with the tested compounds. The results were expressed as a percentage of the control and calculated as the inhibitory concentration (IC50) values using GraphPad Prism 5. Each individual compound was tested in triplicate in a single experiment with each experiment being repeated three times.

cdc2 = test: Western blot of cdc2; type: cell-based, human; details: HCT116, 1 µM
Procedure: (§3) The HCT116 cells were seeded in 3 cm Petri dishes (Nunc) at a density of 0.5·10^6 cells/well and incubated overnight. The next day, solutions of TSC (1 μM) and DOX (5 μM) were added and the cells incubated for 24 or 48 h. Cells were harvested by trypsinization and washed with cold PBS. Next, the cells were centrifuged and suspended in an RIPA buffer (Thermo Scientific) containing Halt Protease Inhibitor Cocktail (Thermo Scientific), Halt Phosphatase Inhibitor Cocktail (Thermo Scientific) along with 0.5 M EDTA and lysed for 20 min on ice. Then, the lysates were sonicated, centrifuged at 10,000 rpm for 10 min at 4° C and the supernatants were collected for further analysis. The protein concentration was determined using a Micro BCA™ Protein Assay Kit (Thermo Scientific) according to the manufacturer’s instructions. Equal amounts of the proteins (20 μg) were electrophoresed on SDS-Page gels and transferred onto a nitrocellulose membranes. The membranes were blocked in 5% non-fat milk prepared in PBS containing 0.1% Tween-20 (TPBS) for 1 h. After blocking, the membranes were incubated with specific primary antibodies: cdc2 (#POH1, Cell Signaling), p21^Waf1/Cip1 (#12D1, Cell Signaling), p53 (#1C12, Cell Signaling) and β-Actin (#8H10D10, Cell Signaling) overnight at 4° C, then washed and incubated with horseradish peroxidase (HRP)-conjugated secondary antibodies for 1h at room temperature. All of antibodies were diluted 1:1000 in 5% milk in TPBS. Finally, the membranes were washed and incubated with a SuperSignal™ West Pico Chemiluminescent Substrate (Thermo Scientific). The chemiluminescence signals were captured using a ChemiDoc™ XRS+ System (BioRad). The experiments were performed at least three times. Densitometric analysis was performed using ImageJ 1.41 software (Wayne Rasband, National Institutes of Health, USA).

MCF-7 = test: MTS antiproliferative assay, MCF-7 (with or without added metal ions); type: cell-based, human; details: for improvement in cytotoxicity after interacting with Cu^2+: MCF-7 cells, 20 µM CuSO4; for Selectivity index, calculated for MCF-7: versus NHDF
Procedure: as §1, §2

MnSOD = test: mRNA expression (Real-Time PCR) of MnSOD; type: cell-based, human; details: HCT116, TSC 1 µM, 12 or 24 h
Procedure: (§4) The HCT116 cells were seeded in 3 cm Petri dishes (Nunc) at a density of 0.5·10^6 cells/well and incubated overnight. Next, the medium was removed and solutions of TSC (1 μM) and DOX (5 μM) were added. After 12 or 24 h, total RNA was isolated from the cells using TRIzol Reagent (Ambion) according to the manufacturer’s instructions. cDNA synthesis was performed with 5 μg of total RNA using a GoScript™ Reverse Transcriptase kit (Promega) and Oligo(dT)23 Primers (Sigma). The Real-Time PCR was performed with a CTX96 Touch™ Real-Time PCR Detection System (Biorad) in a 20 μL reaction volume. The reaction consisted of PowerUp™ SYBR® Green Master Mix (Applied Biosystems), a primer pair mix (0.5 μM each) and 1 μL of cDNA. All primer pair sequences were purchased from Sigma-Aldrich and are listed in Supplementary Table 2. The experiment was performed under the following conditions: initial denaturation at 95° C for 120 sec; followed by 40 denaturation cycles at 95° C, 15 sec; annealing (primer-specific temperature for 30 sec) and extension at 72° C for 60 sec. Data was analyzed based on a comparison of the expression of the target genes to a reference gene – β-actin, using the 2^–ΔΔCT method. The experiments were performed at least three times.

NHDF [2] = test: MTS cytotoxicity assay, normal fibroblasts; type: cell-based, human; details: 96 h incubation
Procedure: as §1

calf-thymus DNA (CT-DNA) [3] = test: Intercalation, absorption spectra with CT-DNA; type: binding; details: for % hypochromism / Changes in absorbance / Δε: bound to CT-DNA; for blue/red shift: wavelengths of maximum absorption, compound alone vs DNA-bound
Procedure: For the DNA binding studies, Calf-thymus DNA (CT-DNA) was purchased from Sigma Aldrich. The lyophilized CT-DNA was dissolved in 10 mM Tris-HCl, pH 7.9, mixed gently and left overnight at 4° C. The purity of the CT-DNA solution was determined by measuring the ratio of UV absorbance at 260 and 280 nm. […] Then, the concentration of CT-DNA was determined from the absorbance at 260 nm using an extinction coefficient of 6600 M^–1cm^–1. The tested TSC and DOX were dissolved in DMSO to a concentration of 8.35 mM, which was then used as the stock solution for preparing the various concentrations (25, 12.5, 6 and 3 µM) in 1 mL in 10 mM of Tris-HCl (pH 7.9). Afterwards, 18 µM CT-DNA was added to the prepared solutions, which were incubated for 1.5 h at 37° C with occasional vortexing. The absorption spectra were measured using a Hitachi U-2900 spectrophotometer in range of 200–500 nm. All absorption spectra were imported and compared in OriginPro 8.0.

p21 = test: Western blot of p21; type: cell-based, human; details: HCT116, 1 µM
Procedure: as §3

CAT = test: mRNA expression (Real-Time PCR) of CAT; type: cell-based, human; details: HCT116, TSC 1 µM, after the first 12 h
Procedure: as §4

Ndrg1 = test: mRNA expression (Real-Time PCR) of Ndrg1; type: cell-based, human; details: HCT116, TSC 1 µM, 24 h
Procedure: as §4

HCT116 cells = test: Cell cycle assay (Muse Cell-Cycle Kit); type: cell-based, human; details: HCT116, TSC 1 µM, 48 h; untreated 72%
Procedure: The HCT116 cells were seeded in 3 cm Petri dishes (Nunc) at a density of 0.25·10^6 cells/well and incubated at 37° C for 24 h. […] After a 48 h treatment, assays were performed using a Muse Cell-Cycle Kit (Millipore) according to the manufacturer’s instructions. Briefly, cells were collected, washed with cold PBS and centrifuged at 300 g. Then, the cells were fixed in ice cold 70% ethanol and stored at –20° C overnight. Afterwards, the cells were centrifuged and resuspended in 200 μL of Muse™ Cell Cycle Reagent and incubated for 30 min at room temperature in the dark. After staining, the cells were processed for cell cycle analysis using a Muse Cell Analyzer (Millipore). The experiments were performed at least three times.

HCT116 [4] = tested on: HCT116; design: method as in PMID 25329549; details: 96 h incubation, MTS; cited from earlier work
NHDF [5] = tested on: NHDF; design: method as in PMID 25329549; details: 96 h incubation, MTS; cited from earlier work
calf-thymus DNA (CT-DNA) [6] = tested on: calf-thymus DNA (CT-DNA); design: method as in PMID 26599982; details: cited from earlier work
[7] = Homo sapiens, HCT-116, 96 h, 20 µM CuSO4 added, read-out: Activity - IC50 HCT116+ Cu^2+
[8] = Homo sapiens, HCT-116, 96 h, 20 µM FeCl3 added, read-out: Activity - IC50 HCT116+ Fe^3+
[9] = Homo sapiens, HCT-116, 96 h incubation, MTS, read-out: Activity - IC50 HCT116
[10] = Homo sapiens, MCF7, 96 h, 20 µM CuSO4 added, read-out: Activity - IC50 MCF-7+ Cu^2+
[11] = Homo sapiens, MCF7, 96 h, 20 µM FeCl3 added, read-out: Activity - IC50 MCF-7+ Fe^3+
[12] = Homo sapiens, MCF7, 96 h incubation, MTS, read-out: Activity - IC50 MCF-7
[13] = 96 h, 20 µM CuSO4 added, read-out: Activity - IC50 HCT116+ Cu^2+
[14] = 96 h, 20 µM FeCl3 added, read-out: Activity - IC50 HCT116+ Fe^3+
[15] = 96 h, 20 µM CuSO4 added, read-out: Activity - IC50 MCF-7+ Cu^2+
[16] = 96 h, 20 µM FeCl3 added, read-out: Activity - IC50 MCF-7+ Fe^3+
[17] = 96 h incubation, MTS, read-out: Activity - IC50 MCF-7

Compound | IC50 (HCT116 [1]; [7]) [nM] | IC50 (HCT116 [1]; [8]) [nM] | IC50 (HCT116 [1]; [9]) [nM] | Selectivity index, calculated for HCT116 (HCT116 [1]) | expression of cdc2 protein (densitometric analysis) (cdc2) | IC50 (MCF-7; [10]) [nM] | IC50 (MCF-7; [11]) [nM] | IC50 (MCF-7; [12]) [nM] | improvement in cytotoxicity after interacting with Cu^2+ (MCF-7) | Selectivity index, calculated for MCF-7 (MCF-7) | mRNA expression of MnSOD (MnSOD) | IC50 (NHDF [2]; Homo sapiens, NHDF) [nM] | % hypochromism (calf-thymus DNA (CT-DNA) [3]) [%] | Changes in absorbance (calf-thymus DNA (CT-DNA) [3]) | Δε (calf-thymus DNA (CT-DNA) [3]) [M⁻¹ cm⁻¹] | blue/red shift (calf-thymus DNA (CT-DNA) [3]) [nm] | expression of p21 protein (densitometric analysis) (p21) | IC50 (HCT116 [1]; [13]) [nM] | IC50 (HCT116 [1]; [14]) [nM] | IC50 (MCF-7; [15]) [nM] | also measured
Fc1ccc(N2CCN(C(=S)NN=Cc3ccc4ccccc4n3)CC2)cc1 [Compound 1b, 4-(4-fluorophenyl)-N’-[(quinolin-2-yl)methylidene]piperazine-1-carbothiohydrazide] | 19.7 ± 0.53 | 72.4 ± 12.9 | 62.2 ± 8.95 | 1.8 | lowest values; also recorded: strongest decreasing effect | 3.78 ± 0.88 | 25 ± 2.16 | 31.4 ± 3.38 | eight-fold | 3.6 | large drop | 114 ± 10.3 | 24.2 | hypochromism | 2313.3 | 10 | increased p21 level, but in a lesser degree | – | – | – | –
FC(F)(F)c1cnc(N2CCN(C(=S)NN=Cc3ccc4ccccc4n3)CC2)c(Cl)c1 [Compound 1c] | – | – | – | – | – | – | – | – | – | – | – | – | 22.6 | hypochromism | 2695.6 | 4 | marked up-regulation | 7.19 ± 1.84 | 70.8 ± 7.28 | 4.48 ± 1.18 | IC50 (HCT116 [1]; 96 h incubation, MTS, read-out: Activity - IC50 HCT116): 72.1 ± 9.4 nM; improvement in cytotoxicity after interacting with Cu^2+ (HCT116 [1]; HCT116 cells, 20 µM CuSO4): more than a ten-fold increase; IC50 (MCF-7; [16]): 39.1 ± 6.51 nM; IC50 (MCF-7; [17]): 17.2 ± 2.71 nM; mRNA expression of CAT (CAT): higher; IC50 (NHDF [2]): 17100 nM
S=C(NN=C(c1ccccn1)c1ccccn1)N1CCN(c2ccccn2)CC1 [Compound 3b] | – | – | – | – | strongest decreasing effect | – | – | – | eight-fold | – | large drop | – | 31.9 | hypochromism | 6133.3 | 5 | increased p21 level, but in a lesser degree | 1.56 ± 0.44 | 9.94 ± 2.69 | 0.54 ± 0.15 | mRNA expression of Ndrg1 (Ndrg1): strongest; cells in G0/G1 phase (HCT116 cells): 39%; IC50 (MCF-7; [16]): 5.35 ± 0.66 nM; IC50 (MCF-7; [17]): 4.1 ± 0.93 nM; IC50 (HCT116 [4]): 2.06 ± 0.88 nM; IC50 (NHDF [5]): 160 ± 40 nM; mRNA expression of CAT (CAT): higher
COc1cccc2c1C(=O)c1c(O)c3c(c(O)c1C2=O)C[C@@](O)(C(=O)CO)C[C@@H]3O[C@H]1C[C@H](N)[C@H](O)[C@H](C)O1 [DOX, doxorubicin, reference compound] | 62.5 ± 8.24 | 84.8 ± 11.2 | 91 ± 6.96 | 1.5 | – | 336 ± 65.3 | 414 ± 59 | 405 ± 38 | – | 0.3 | – | 137 ± 26 | – | – | – | – | – | – | – | – | % hypochromism (calf-thymus DNA (CT-DNA) [6]; bound to CT-DNA): 34.2%; Changes in absorbance (calf-thymus DNA (CT-DNA) [6]; bound to CT-DNA): hypochromism; Δε (calf-thymus DNA (CT-DNA) [6]; bound to CT-DNA): 3235.6 M⁻¹ cm⁻¹; % hypochromism (calf-thymus DNA (CT-DNA) [6]; bound to CT-DNA, listed as doxorubicin): about 34.2%; blue/red shift (calf-thymus DNA (CT-DNA) [6]; wavelengths of maximum absorption, compound alone vs DNA-bound): 10 nm
